From patent publication US4536402A, “Vinylogous carboxamides” (Dr. Karl Thomae Gesellschaft mit beschranter Haftung, priority 1982, dated 1985)
Where two headings read alike, the source gives them in different places.

What was measured:
[1] = tested on: tonic extensor spasm in the back legs of male mice subjected to maximum electric shock; test: Anticonvulsant activity in mice: inhibition of tonic extensor spasm after maximum electric shock; format: in vivo, male SPF mice (Chbb:NMRI); conditions: Mus musculus, oral
Experimental: The anticonvulsant activity was tested by measuring the inhibition of tonic extensor spasm in the back legs of male mice subjected to maximum electric shock.
The test animals used were male SPF mice (Chbb:NMRI) weighing from 20-26 gm which had access to standard food and drinking water up to one hour before the oral administration of the test substance.
The test was carried out using the method described by Swinyard, Brown and Goodman (J. Pharmacol. Exp. Ther. 106, 319, [1952]). The electric shock apparatus was constructed in accordance with the specifications provided by Woodbury and Davenport (Arch. Int. Pharmacodyn. 92, 97, [1952]). The electrical stimuli were administered to the animals' temples above their eyes, through steel ball electrodes covered with chamois and moistened with 0.9% NaCl solution. The stimuli were administered using alternating current, 50 Hz and 50 mA, with a duration of 0.2 sec.
The substance to be tested was suspended in 1% tylose mucilage and administered orally in a volume of 0.1 ml/10 gm body weight of the mice, each dosage being administered to 10 mice. The animals were given the shocks 30, 150 and 300 minutes after the administration of the test substance, and the ED50 values were determined graphically or by using the method of Litchfield and Wilcoxon (J. Pharmacol. Exp. Ther. 96, 99, [1949]) from the dosage which protects 50% of the animals from the tonic extension spasm of the rear extremities.

[2] = tested on: tonic extensor spasms in the back legs of male rats subjected to maximum electric shock; test: Anticonvulsant activity in rats: inhibition of tonic extensor spasms after maximum electric shock; format: in vivo, male SPF rats (Chbb:THOM); conditions: for % protected / animals protected: N=6, one hour
Experimental: The anticonvulsant activity was tested by measuring the inhibition of tonic extensor spasms in the back legs of male rats subjected to maximum electric shock.
The test animals used were male SPF rats (Chbb:THOM) weighing from 100-120 gm which had access to standard food and drinking water up to one hour before the oral administration of the test substance.
The test was carried out using the method described by Swinyard, Brown and Goodman (J. Pharmacol. Exp. Ther. 106, 319, [1952]). The electric shock apparatus was constructed in accordance with the specifications provided by Woodbury and Davenport (Arch. Int. Pharmacodyn. 92, 97 [1952]). The electrical stimuli were applied to the temples above the eyes, using moistened steel ball electrodes. The parameters of the stimuli were as follows: alternating current 50 Hz, 50 mA, duration of stimulus 0.2 sec. In all the control animals, clonic and then tonic extension spasm of the extremities occurred; the latter can be prevented by means of effective anticonvulsant agents.
The substance to be tested was suspended in 2% tylose mucilage and administered orally, in a volume of 1 ml/100 gm body weight of the rat, in dosages of 1.56, 3.125, 6.25 and 12.5 mg/kg, each dose being administered to 6 rats. One hour later, the animals were subjected to electric shock and the ED50 was calculated as the dosage which protected 50% of the animals against tonic extension spasms in the rear extremities, with confidence limits for a 5% probability of error.

[3] = Approximate acute toxicity in mice, p.o.; format: in vivo; conditions: in vivo; mouse, oral, 14 days
Text: (§1) Approximate acute toxicity in mice, compound A, p.o.

mice = test: Approximate acute toxicity in mice, p.o.; format: in vivo; conditions: for Number of animals which died in 14 days: mice
Text: as §1

[4] = Acute toxicity in the rat, p.o.; format: in vivo; conditions: in vivo; for mortality at 336 h: N=10, read-out: Animals which died in 14 days, %
Text: (§2) Acute toxicity in the rat, compound A, p.o.

rat = test: Acute toxicity in the rat, p.o.; format: in vivo; conditions: for Animals which died in 14 days: N=10
Text: as §2

[5] = tested on: fatty and cartilaginous tissue (kidney fat and sternum); test: Tests for yellow coloration of fatty and cartilaginous tissue in the rat; format: in vivo, male rats, Chbb:THOM (SPF)
Experimental: The yellow coloration of fatty and cartilaginous tissue following the oral administration of 50 and 400 mg/kg of compound E and compound A once a day over a period of 51/2 weeks was investigated. The compounds were homogeneously suspended in 1.5% tylose by several hours' stirring. The compounds were administered through an esophageal tube. The volume administered was about 1.4 ml. 9 to 11 male rats [of the Chbb:THOM (SPF) strain] with a body weight of 263±10 gm were used for each dose. At different times, animals were taken from the four treated groups and one control group and the kidney fat and sternum were removed after the animal had been bled from the abdominal aorta.

[6] = tested on: fatty and cartilaginous tissue (kidney fat and sternum); conditions: known compound, general statement; cited from earlier work
[7] = 0.5 h, shock 30 minutes after administration
[8] = 2.5 h, shock 150 minutes after administration
[9] = 5 h, shock 300 minutes after administration
[10] = 50 mg/kg oral once a day, 17 days
[11] = 50 mg/kg oral once a day, 36 days
[12] = 50 mg/kg oral once a day, 38 days
[13] = 50 mg/kg oral once a day, 39 days
[14] = 400 mg/kg oral once a day, 2 days
[15] = 400 mg/kg oral once a day, 4 days
[16] = 400 mg/kg oral once a day, 9 days
[17] = 400 mg/kg oral once a day, 17 days
[18] = 400 mg/kg oral once a day, 36 days
[19] = 400 mg/kg oral once a day, 38 days
[20] = 400 mg/kg oral once a day, 39 days

Q: For `CCN/C(=C1\C(=O)c2ccccc2[S+]1[O-])c1ccccc1` (centres unmarked) [C, (E)-2-[(ethylamino)phenylmethylene]-benzo[b]thiophen-3(2H)-one-1-oxide], which ED50 [1, 7] is on record?
A: 17.1 mg/kg

Q: And the ED50 [1, 8]?
A: 61 mg/kg

Q: What about the ED50 [1, 9] of the same compound?
A: 93.9 mg/kg

Q: With `N/C(=C1\C(=O)c2ccccc2[S+]1[O-])c1ccccc1` (centres unmarked) [Compound A, (E)-2-[(amino)phenylmethylene]-benzo[b]thiophen-3(2H)-one-1-oxide] as the compound, how does the ED50 [1, 7] read?
A: 12.5 mg/kg

Q: What about the ED50 [1, 8] of the same compound?
A: 35 mg/kg

Q: And the ED50 [1, 9]?
A: 88 mg/kg

Q: And the “% protected” value ([2]; 1.56 mg/kg p.o.)?
A: 0%

Q: And the animals protected ([2]; 1.56 mg/kg p.o.)?
A: 0 animals

Q: And the “% protected” value ([2]; 3.125 mg/kg p.o.)?
A: 67%

Q: What about the animals protected ([2]; 3.125 mg/kg p.o.) of the same compound?
A: 4 animals

Q: What about the “% protected” value ([2]; 6.25 mg/kg p.o.) of the same compound?
A: 83%

Q: And the animals protected ([2]; 6.25 mg/kg p.o.)?
A: 5 animals

Q: What about the “% protected” value ([2]; 12.5 mg/kg p.o.) of the same compound?
A: 100%

Q: And the animals protected ([2]; 12.5 mg/kg p.o.)?
A: 6 animals

Q: What about the ED50 ([2]; Rattus norvegicus, 1 h, oral, one hour, read-out: ED50 (confidence limits, p≤0.05)) of the same compound?
A: 3.25 mg/kg

Q: And the LD50 at 336 h [3]?
A: > 4000 mg/kg

Q: And the “Number of animals which died in 14 days” value (mice; 500 mg/kg p.o., N=10)?
A: 0 animals

Q: What about the “Number of animals which died in 14 days” value (mice; 1000 mg/kg p.o., N=16) of the same compound?
A: 1 animals

Q: And the “Number of animals which died in 14 days” value (mice; 1410 mg/kg p.o., N=10)?
A: 0 animals

Q: What about the “Number of animals which died in 14 days” value (mice; 2000 mg/kg p.o., N=10) of the same compound?
A: 2 animals

Q: And the “Number of animals which died in 14 days” value (mice; 4000 mg/kg p.o., N=10)?
A: 1 animals

Q: And the tolerance (mice; mouse, in vivo, po)?
A: well tolerated

Q: What about the LD50 at 336 h ([4]; oral, 14 days, read-out: LD50 (confidence limits, p≤0.05)) of the same compound?
A: 2600 mg/kg

Q: And the mortality at 336 h ([4]; po, 1000 mg/kg p.o.)?
A: 0%

Q: And the mortality at 336 h ([4]; po, 2000 mg/kg p.o.)?
A: 40%

Q: And the mortality at 336 h ([4]; po, 4000 mg/kg p.o.)?
A: 70%

Q: And the therapeutic index (LD50/ED50) ([4]; po, LD50 / ED50, read-out: average toxic dose relative to average therapeutic dose)?
A: 800

Q: And the “Animals which died in 14 days” value (rat; 1000 mg/kg p.o.)?
A: 0 animals

Q: And the “Animals which died in 14 days” value (rat; 2000 mg/kg p.o.)?
A: 4 animals

Q: What about the “Animals which died in 14 days” value (rat; 4000 mg/kg p.o.) of the same compound?
A: 7 animals

Q: What about the toxic effects (rat; in vivo, po) of the same compound?
A: only had toxic effects in very large dosages

Q: And the “Number of animals with yellow kidney fat and sternum (number of animals dissected in brackets)” value [5, 10]?
A: 0 (1) animals

Q: What about the “Number of animals with yellow kidney fat and sternum (number of animals dissected in brackets)” value [5, 11] of the same compound?
A: 0 (1) animals

Q: What about the “Number of animals with yellow kidney fat and sternum (number of animals dissected in brackets)” value [5, 12] of the same compound?
A: 0 (1) animals

Q: What about the “Number of animals with yellow kidney fat and sternum (number of animals dissected in brackets)” value [5, 13] of the same compound?
A: 0 (6) animals

Q: What about the “Number of animals with yellow kidney fat and sternum (number of animals dissected in brackets)” value [5, 14] of the same compound?
A: 0 (1) animals

Q: What about the “Number of animals with yellow kidney fat and sternum (number of animals dissected in brackets)” value [5, 15] of the same compound?
A: 0 (1) animals

Q: And the “Number of animals with yellow kidney fat and sternum (number of animals dissected in brackets)” value [5, 16]?
A: 0 (1) animals

Q: And the “Number of animals with yellow kidney fat and sternum (number of animals dissected in brackets)” value [5, 17]?
A: 0 (1) animals

Q: What about the “Number of animals with yellow kidney fat and sternum (number of animals dissected in brackets)” value [5, 18] of the same compound?
A: 0 (1) animals

Q: And the “Number of animals with yellow kidney fat and sternum (number of animals dissected in brackets)” value [5, 19]?
A: 0 (1) animals

Q: And the “Number of animals with yellow kidney fat and sternum (number of animals dissected in brackets)” value [5, 20]?
A: 0 (2) animals

Q: Which ED50 [1, 7] does the source give for `N/C(=C1\C(=O)c2ccccc2[S+]1[O-])c1ccccc1Cl` (centres unmarked) [B, (E)-2-[(amino)-2-chlorophenylmethylene]-benzo[b]thiophen-3(2H)-one-1-oxide] here?
A: 8.1 mg/kg

Q: What about the ED50 [1, 8] of the same compound?
A: 7.4 mg/kg

Q: And the ED50 [1, 9]?
A: 8.3 mg/kg

Q: Which “Number of animals with yellow kidney fat and sternum (number of animals dissected in brackets)” value [5, 10] does the source give for `N/C(=C1/Sc2ccccc2C1=O)c1ccccc1` [Compound E, (E)-2-[(amino)phenylmethylene]-benzo[b]thiophen-3(2H)-one] here?
A: 0 (1) animals

Q: And the “Number of animals with yellow kidney fat and sternum (number of animals dissected in brackets)” value [5, 11]?
A: 0 (1) animals

Q: And the “Number of animals with yellow kidney fat and sternum (number of animals dissected in brackets)” value [5, 12]?
A: 0 (1) animals

Q: What about the “Number of animals with yellow kidney fat and sternum (number of animals dissected in brackets)” value [5, 13] of the same compound?
A: 0 (6) animals

Q: What about the “Number of animals with yellow kidney fat and sternum (number of animals dissected in brackets)” value [5, 14] of the same compound?
A: 0 (1) animals

Q: What about the “Number of animals with yellow kidney fat and sternum (number of animals dissected in brackets)” value [5, 15] of the same compound?
A: 0 (1) animals

Q: What about the “Number of animals with yellow kidney fat and sternum (number of animals dissected in brackets)” value [5, 16] of the same compound?
A: 0 (1) animals

Q: And the “Number of animals with yellow kidney fat and sternum (number of animals dissected in brackets)” value [5, 17]?
A: 1 (1) animals

Q: What about the “degree of yellow coloration of kidney fat and sternum” value (from here on “degree”) [5, 17] of the same compound?
A: very slight

Q: What about the “Number of animals with yellow kidney fat and sternum (number of animals dissected in brackets)” value [5, 18] of the same compound?
A: 1 (1) animals

Q: And the “degree” value [5, 18]?
A: marked

Q: And the “Number of animals with yellow kidney fat and sternum (number of animals dissected in brackets)” value [5, 19]?
A: 1 (1) animals

Q: What about the “degree” value [5, 19] of the same compound?
A: marked

Q: And the “Number of animals with yellow kidney fat and sternum (number of animals dissected in brackets)” value [5, 20]?
A: 5 (5) animals

Q: And the “degree” value [5, 20]?
A: marked

Q: And the “yellow coloration of the kidney fat and sternum” value ([5]; 400 mg/kg, from the 17th day p.a.)?
A: slight at first but became marked later

Q: And the “undesirable side effect: yellow coloration of fatty and cartilaginous tissue” value [6]?
A: strong yellow coloration
